These are literature values, as cited in patent US20220184030A1, “N-Phenylacetyl-L-prolylglycine ethyl ester compositions and methods for using the same” (priority 2020, published 2022).

Read-outs that look alike come from different tables or passages of the source. Residues, ends and D or L forms follow the SMILES beside them. *: point of attachment. PhAc = O=C(Cc1ccccc1)*

The conditions of data set [1]: users.
Assay in data set [2]: not given
This is another data set of the same source.

In the case of `C=C(C)[C@@H]1CCC(C)=C[C@H]1c1c(O)cc(CCCCC)cc1O` [CBD, cannabidiol], in data set [1], the “tolerance or addiction to the compound” value is listed as “neither noopept nor CBD has been shown to cause the user to become tolerant or addicted” and the “tolerance to the nootropic effects” value was “generally do not develop a tolerance”. The side effects result (humans who consume effective doses) is “generally does not cause significant side effects”.
As for `CCOC(=O)CNC(=O)[C@@H]1CCCN1C(=O)Cc1ccccc1` [noopept, N-Phenylacetyl-L-prolylglycine ethyl ester] (PhAc-Pro-Gly-OEt), in data set [1], the “tolerance or addiction to the compound” value is “neither noopept nor CBD has been shown to cause the user to become tolerant or addicted” and the “tolerance to the nootropic effects” value is “generally do not develop a tolerance”. The “effective dose relative to the effective dose of piracetam” value in data set [2] (versus piracetam) is on record as “over 50 times smaller in mass”. Moreover, in data set [2] (versus some racetams, such as piracetam), the “effective dose compared with racetams (in words)” value is given as “smaller effective dose than some racetams”. The side effects result (healthy human subjects, compared with piracetam) is reported as “fewer side effects”.
